Assay results taken from PubChem BioAssay AID2742 (NMMLSC, 2010).
Several values for one entry are separate records, joined by “and”; a condition that tells them apart may be missing. Equal entries are not always repeated. Activity calls are given as the source filed them.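 How the source made its calls: active means fitted half-maximal concentration for changing background-corrected GFP signal at or below a set limit; inactive means the rest.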

Assay: modulators of MEP2-GFP levels in yeast, dose response, S. cerevisiae, flow cytometry GFP, MLPCN hits (AID 2742);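 further: GFP tag reports level of MEP2 protein as a downstream target of TOR signalling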
Details: S. cerevisiae MEP2-GFP strain, flow cytometry fluorescence, 3 h; at 33 µM (top of the series)

| Compound | GFP fluorescence (kMESF), higher = increase |
| --- | --- |
| COc1ccccc1C(=O)NNC(=S)NC(=O)c1cccs1 | 4.73 kMESF (inactive) |
| CCOc1ccc(N/N=C(/C#N)C(N)=O)cc1 | 2.43 kMESF (inactive) |
| COc1ccc(N2C(=O)C(Cl)=C(Nc3c(C)n(C)n(-c4ccccc4)c3=O)C2=O)cc1 | 2.4 kMESF (inactive) |
| COc1cc(/C=C2\C(=O)N(CCC#N)N=C2C)c(Br)cc1OC(C)C | 4.57 kMESF (inactive) |
| O=C(C#Cc1ccccc1)c1cccc([N+](=O)[O-])c1 | 4.67 kMESF (inactive) |
| O=C1NC(=O)N(CCc2ccc(F)cc2)C(=O)/C1=C/c1cccs1 | 4.39 kMESF (inactive) |
| COc1ccc(NC(=O)/C(C#N)=C/c2ncc([N+](=O)[O-])n2C)c(OC)c1 | 4.5 kMESF (inactive) |
| COc1ccc(/C=C/C(=O)c2cc(Br)ccc(=O)c2O)cc1 | -51.6 kMESF (inactive) |
| CN(C)c1ccc(/C=C/c2cc[n+](C)cc2)cc1 | 2.76 kMESF (inactive) |
| CS(=O)(=O)c1nc(-c2cccs2)cc(C(F)(F)F)n1 | 6.41 kMESF (inactive) |
| Cc1ccc(/C(N)=N/OC(=O)c2ccc(F)cc2)cc1 | 2.2 kMESF (inactive) |
| C/C(=N\NC(=O)c1cccc(Br)c1)c1ccccn1 | 4.33 kMESF (inactive) |
| COc1ccc(C(=O)/C=C2/C(=O)Nc3ccccc32)cc1OC | 2.25 kMESF (inactive) |
| CCCCOc1ccc(C(=O)NNC(=S)NC(=O)CC)cc1 | 6.17 kMESF (inactive) |
| COc1ccc(C(=O)NC(=S)NNC(=O)c2cnccn2)cc1 | 3.91 kMESF (inactive) |
| CN(C)c1ccc(N=Cc2nc(-c3ccccc3)oc2OC(=O)c2ccccc2)cc1 | 3.17 kMESF (inactive) |
| CCCOc1ccc(C(=O)NNC(=S)NC(=O)CC)cc1 | 4.12 kMESF (inactive) |
| O=C1c2ccccc2C(=O)N1OS(=O)(=O)c1ccc(F)cc1 | 3.26 kMESF (inactive) |
| O=C(c1ccc(C(=O)N2CCCc3ccccc32)s1)N1CCCc2ccccc21 | 3.28 kMESF (inactive) |
| O=[N+]([O-])c1cc(S(=O)(=O)C(F)(F)F)ccc1Sc1nc2ccccc2s1 | 4.67 kMESF (inactive) |
| O=C(Oc1oc(-c2ccco2)nc1C=Nc1ccccc1)c1ccco1 | 4.57 kMESF (inactive) |
| COc1ccccc1[C@]1(C)ON(c2ccccc2C(F)(F)F)C1=O | 5.08 kMESF (inactive) |

| Compound | GFP fluorescence (kMESF), higher = increase |
| --- | --- |
| O=C(OCn1ncc(Br)c(Br)c1=O)c1c(F)cccc1F | 4.49 kMESF (inactive) |
| CCN1/C(=C/C(C)=C/c2sc3ccccc3[n+]2CC)Sc2ccccc21 | 4.91 kMESF (inactive) |
| COc1cccc(N=Cc2nc(-c3ccccc3)oc2OC(C)=O)c1 | 3.64 kMESF (inactive) |
| O=C1C(=O)c2ccccc2-c2ccccc21 | 2.76 kMESF (inactive) |
| COc1cccc(/C=C/C(=O)c2c(O)cc(C)oc2=O)c1O | 4.26 kMESF (inactive) |
| CCOC(=O)c1ccc(N=Cc2nc(-c3ccccc3)oc2OC(C)=O)cc1 | 5.65 kMESF (inactive) |
| CCOC(=O)C(C(=O)OCC)C(C(=O)OCC)N1CCOCC1 (stereo not given) | 4.83 kMESF (inactive) |
| Cc1[nH]n(-c2ccccc2)c(=O)c1C(c1ccccc1[N+](=O)[O-])C(C#N)C#N (stereo not given) | 4.8 kMESF (inactive) |
| O=C(COc1ccc(F)cc1Cl)Nc1nc(-c2ccccn2)cs1 | 4.88 kMESF (inactive) |
| CCOC(=O)CSC1=NC(=O)/C(=C/c2ccc(Br)cc2)S1 | 4.7 kMESF (inactive) |
| COc1ccc([C@]2(C(C)C)ON(c3ccccc3C(F)(F)F)C2=O)cc1 | 2.67 kMESF (inactive) |
| O=c1[nH]c(-c2ccccn2)nc(C(F)(F)F)c1Br | 4.02 kMESF (inactive) |
| O=C(Nc1ccc(NC(=O)c2cc3ccccc3o2)cc1)c1ccc2c(c1)OCCO2 | 2.4 kMESF (inactive) |
| O=S(=O)(/N=C(/Sc1ccccc1)c1ccccc1)c1ccccc1 | 4.43 kMESF (inactive) |
| Cc1nn2c(-c3ccncc3)nnc2c2ccccc12 | 1.97 kMESF (inactive) |
| Cc1ccc(NC(=O)c2nc(S(=O)(=O)Cc3ccccc3)ncc2Cl)cc1 | 3.33 kMESF (inactive) |
| COc1ccc(C(=O)/C=C2/C(=O)Nc3ccccc32)c(OC)c1 | 3.34 kMESF (inactive) |
| Cc1[nH]n(-c2ncc(-c3ccccc3)s2)c(=O)c1C(c1ccc(Cl)cc1)C(C#N)C#N (stereo not given) | 4.02 kMESF (inactive) |
| O=C1C=C(Nc2ccc(Cl)cc2)C(=O)N1c1ccc(Cl)cc1 | 1.97 kMESF (inactive) |
| CC(Oc1cc2oc(=O)c3c(c2cc1Cl)CCC3)C(=O)NCCN1CCOCC1 (stereo not given) | 2.37 kMESF (inactive) |
| COCCN1C(=O)/C(=C/c2ccc(N3CCCC3)cc2C)SC1=S | 7.22 kMESF (inactive) |
| CCCCc1ccc(NC(=O)CC(C)=O)cc1 | 2.02 kMESF (inactive) |

| Compound | GFP fluorescence (kMESF), higher = increase |
| --- | --- |
| O=C1C=CC(=O)N1c1ccc(OC(F)F)cc1 | 3.81 kMESF (inactive) |
| N/C(=N\OC(=O)c1cccc(Br)c1)c1ccccc1 | 2.6 kMESF (inactive) |
| CCC(=O)Oc1oc(-c2ccccc2)nc1C=Nc1ccccc1OC | 2.69 kMESF (inactive) |
| CCOC(=O)CSC1=NC(=O)/C(=C/c2ccc(OC)cc2)S1 | 1.26 kMESF (inactive) |
| Clc1ccc(N=c2ssnc2Cl)cc1 | 4.8 kMESF (inactive) |
| COc1cc(SSc2cc(OC)cc([N+](=O)[O-])c2N)c(N)c([N+](=O)[O-])c1 | 5.29 kMESF (inactive) |
| COc1ccc(C(=O)NC(=S)NNC(=O)CCc2ccccc2)cc1 | 3.68 kMESF (inactive) |
| Cc1cccc(Nc2nc(-c3ccccn3)cs2)n1 | 5.01 kMESF (inactive) |
| Cc1ccc(/C=C2\SC(=S)N(CC3CCCO3)C2=O)o1 (stereo not given) | 4.83 kMESF (inactive) |
| Cc1ccc(NC(=O)c2cc(N3C(=O)C=CC3=O)ccc2Cl)cc1C | 5.17 kMESF (inactive) |
| CC(C)Cn1c(=O)c(C(=O)Nc2ccncc2)c(O)c2ccccc21 | 3.98 kMESF (inactive) |
| Cc1ccc(C2=NOC(=O)/C2=C\c2ccc(C)o2)cc1 | 2.14 kMESF (inactive) |
| O=C1c2cccc3c([N+](=O)[O-])ccc(c23)C(=O)N1O | 22.1 kMESF (inactive) |
| Cc1ccc(-c2nc(N)c3c(-c4ccc(C)cc4)nn(C(C)(C)C)c3n2)cc1 | 1.65 kMESF (inactive) |
| O=C1C2C3C=CC(CO)(O3)C2C(=O)N1c1ccccc1-c1ccccc1 (stereo not given) | 5.17 kMESF (inactive) |
| O=C(OCC(=O)N1CCN(C(=O)c2ccco2)CC1)c1cc(-c2ccccc2)nc2ccccc12 | 3.96 kMESF (inactive) and 2.66 kMESF (inactive) |
| Cc1ccc(S(=O)(=O)/N=C(\Sc2ccccc2)c2ccccc2)cc1 | 3.88 kMESF (inactive) |
| CCCCS(=O)(=O)/C=C\C=C/S(=O)(=O)CCCC | 5.41 kMESF (inactive) |
| COc1cc(/C=C2\C(=O)ON=C2c2ccccc2)cc(Br)c1O | 4.31 kMESF (inactive) |
| COc1cc(/C=C2/C(=O)ON=C2c2ccccc2)ccc1O | 3.68 kMESF (inactive) |
| N=C1/C(=C\c2coc3ccccc3c2=O)C(=O)N=C2SC(c3ccncc3)=NN12 | -3.13 kMESF (inactive) |
| O=C1N(c2ccccc2C(F)(F)F)O[C@]1(c1ccccc1)C1CCCCC1 | 3.28 kMESF (inactive) |

| Compound | GFP fluorescence (kMESF), higher = increase |
| --- | --- |
| CCOC(=O)CSC1=NC(=O)/C(=C\c2ccc(Cl)cc2)S1 | 4.12 kMESF (inactive) |
| Oc1c(C(Nc2nc3ccccc3s2)c2ccco2)ccc2cccnc12 (stereo not given) | 5.51 kMESF (inactive) |
| COc1cc(NC(=O)c2cccc(C)c2)ccc1NC(=O)c1cc2ccccc2o1 | 2.2 kMESF (inactive) |
| CC(C)(C)n1nc(-c2ccc(Cl)cc2)c2c(N)ncnc21 | 6.05 kMESF (inactive) |
| Cc1cc2ccccn2c1C(=O)c1ccc([N+](=O)[O-])o1 | -12.4 kMESF (inactive) |
| O=c1cc(-c2ccccc2)cc(-c2ccccc2)n1O | 4.49 kMESF (inactive) |
| CC(C)(C)C(=O)NC(=S)NNC(=O)c1ccc(-c2ccccc2)cc1 | 3.92 kMESF (inactive) |
| CC1(C)OC(c2ccccc2)=C/C(=C/C=C2C(=O)NC(=S)NC2=O)O1 | 2.7 kMESF (inactive) |
| C#CCOc1c(Br)cc(/C=C2/C(=O)ON=C2C)cc1OC | 3.64 kMESF (inactive) |
| Cc1c(C(=O)Nc2nc(-c3ccccn3)cs2)oc2ccccc12 | 4.49 kMESF (inactive) |
| CCCCCCCCC/C(=N\O)c1ccccn1 | 3.61 kMESF (inactive) |
| Cc1c(Cc2ccccc2)c(NCCN(C)C)n2c(nc3ccccc32)c1C#N | 4.39 kMESF (inactive) |
| COc1ccc(/C=C2/C(=O)ON=C2c2ccccc2)cc1OC | 4.51 kMESF (inactive) |
| CS(=O)(=O)N1N=C(c2ccccc2)CC1c1ccc2c(c1)OCO2 (stereo not given) | 78.8 kMESF (inactive) |
| Oc1ccc(COCc2ccccc2)c2cccnc12 | 6.91 kMESF (inactive) |
| Cc1cccc(C(=O)NC(=S)NNC(=O)Cc2ccccc2)c1 | 3.56 kMESF (inactive) |
| O=[N+]([O-])c1cc(Cl)c2cccnc2c1O | 5.35 kMESF (inactive) |
| O=C1N(c2ccccc2C(F)(F)F)O[C@@]1(c1ccccc1)C1CCCC1 | 2.17 kMESF (inactive) |
| CCOC(=O)CS(=O)(=O)c1nc(-c2ccccc2)cc(C(F)(F)F)n1 | 6.41 kMESF (inactive) |
